Emax, EC50 and JC-1 max % data for 24 molecules are collected here from patent US9983218B2, “Indole and indoline derivatives and methods of use thereof” (AbbVie Inc., priority 2008, dated 2018).

Where two headings read alike, the source gives them in different places.

The subject of test [1] is primary postnatal (P0) cortical cells. Put plainly: Neurite outgrowth assay (Aβ1-42-induced reduction of neurite outgrowth, high content microscopy). Format: cell-based, rat. Conditions: Rattus norvegicus; maximum response relative to 300 nM dimebolin, at the concentration given; read-out: Maximum Effect (of % 300 nM Dimebolin). Here is the method:
In addition to PC12 cells, other cellular model systems may also be used. Rat cortical cells were cultured and prepared for high content microscopy analysis as previously described (Hu, M.; Schurdak, M. E.; et al. High content screen microscopy analysis of Aβ1-42-induced neurite outgrowth reduction in rat primary cortical neurons: Neuroprotective effects of α7 neuronal nicotinic acetylcholine receptor ligands. Brain Res. 2007, 1151, 227-235.). Briefly, cortical cell cultures were plated at density of 5×10^5 cells/mL onto poly-D-lysine coated 96-well plates and maintained in a cell incubator at 37° C. with 5% CO2. Experiments were performed using 6-7 day-old cortical cell cultures by treating with test compounds. In some experiments, the effect of test compounds on reversing Aβ toxicity were also measured (Hu, M.; Schurdak, M. E.; et al. High content screen microscopy analysis of Aβ1-42-induced neurite outgrowth reduction in rat primary cortical neurons: Neuroprotective effects of α7 neuronal nicotinic acetylcholine receptor ligands. Brain Res. 2007, 1151, 227-235.). For assessment of neuroprotective effects, cells were first pretreated with test compounds for about 5 hours. Medium was then replaced with the medium containing freshly prepared about 5 μM Aβ1-42 peptide in the absence or presence of the test compounds for 3 days. The untreated group contained the same percentage of vehicle (DMSO) as in the treatment groups. Cells were fixed with approximately 4% paraformaldehyde containing 0.5% Hoechst 33342 for about 15 minutes, followed by three washes using PBS (pH 7.4) and blocked with 10% donkey serum in PBS for 1 hour at room temperature. The cells were then incubated overnight at about 4° C. with mouse anti-tubulin monoclonal antibody (1:100) for staining neurons and rabbit anti-GFAP (1:1000) for staining glia. In the next day, cells were incubated with FITC-labeled anti-mouse and TRITC-labeled anti-rabbit antibodies (1:1000) for about 1 hour at room temperature. After fixing and staining the cells, nuclei (360/400 nm excitation and 465/300 nm emission filters), neuron (475/350 nm excitation and 535/400 nm emission filters) and glial cell (535 nm excitation and 610 nm emission filters) images were collected using the ImageExpress Micro automatic fluorescent microscopy system (Molecular Devices, Sunnyvale, Calif.) employing a Nikon 10× Plan Fluor objective and Cool Snap HQ CCD camera. The Neurite Outgrowth module in the MetaMorph Imaging software was used to automatically count total cell number, number of neuron cells, and the extent of neurite outgrowth.
In the graph of FIG. 2, 100% response was the response observed for untreated cells. Exposure to Aβ1-42 produced a decrease in neurite outgrowth. Treatment of cells with compounds prior to and concomitantly with Aβ1-42 gave a neuroprotective effect with neurite outgrowth maintained or enhanced relative to untreated cells.

Test [2] concerns SK-N-SH human neuroblastoma cells. Kind of test: Serum deprivation/JC-1 mitochondrial membrane potential (MMP) assay. Format: cell-based. Conditions: for Emax: SK-N-SH, read-out: JC-1 max %; for EC50: SK-N-SH cells, serum deprivation ~18 hours, JC-1 ratio normalized to peak value for 10 μM dimebolin, single curve fit to mean data of n=2-3, read-out: EC50. A digest of the protocol:
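Cells were serum-deprived ~18 h in MEM with or without compound (DMSO ≤1%), then stained with JC-1 for 35 min at 37° C. The red/green fluorescence ratio (560/595 vs 485/535 nm) was normalized to the peak response of 10 μM dimebolin. EC50 came from one curve fit to mean data (n=2-3, duplicates).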

Setting [3] is: Homo sapiens, percent maximal intensity in JC-1 ratio normalized to 10 μM dimebolin.

With `Cc1ccc2c(c1)[C@H]1CN3CCC(CC3)[C@H]1N2CCc1ccc(C)nc1` (relative stereo) [Example 158, (5aR*,10bS*)-9-methyl-6-[2-(6-methylpyridin-3-yl)ethyl]-3,4,5,5a,6,10b-hexahydro-1H-2,5-ethanoazepino[4,3-b]indole], the Emax in test [1] came out at 110%.

For the molecule `Cc1ccc2c(c1)c1c(n2CCc2ccc(C)nc2)C[C@H]2CC[C@@H]1N2` (single isomer, unassigned) [Example 6], the Emax in test [1] came out at 124%; in test [2] (setting [3]), 163%. The EC50 (usually the concentration giving half of the maximal effect) in test [2] (Homo sapiens) is 5.79 µM.

Turning to `Cc1ccc2c(c1)c1c(n2CCc2cccc(C(F)(F)F)c2)C[C@H]2CCC[C@@H]1N2` (single isomer, unassigned) [Example 133], the Emax in test [1] came out at 108%.

For `c1cnc2ccc(-n3c4c(c5ccccc53)[C@H]3CC[C@@H](C4)N3)cc2c1` (single isomer, unassigned) [Example 278], the Emax in test [1] was found to be 96%; in test [2] (setting [3]), 189%. Moreover, in test [2] (Homo sapiens), the EC50 was 2.71 µM.

`c1ccc2c(c1)c1c(n2-c2ccc3ccncc3c2)C[C@H]2CC[C@@H]1N2` (single isomer, unassigned) [Example 279]: the Emax in test [1] came to 108%; in test [2] (setting [3]) it was 209%. The EC50 in test [2] (Homo sapiens) turned out to be 5.49 µM.

Turning to `c1ccc2c(c1)c1c(n2-c2ccc3ccncc3c2)C[C@@H]2CC[C@H]1N2` (single isomer, unassigned) [Example 280], the figures for the Emax in test [1] and in test [2] (setting [3]) were 107% and 201%, respectively. The EC50 in test [2] (Homo sapiens) was found to be 5.25 µM.

Consider `Cc1ccc2c(c1)c1c(n2CCc2cnc(C)nc2)C[C@H]2CC[C@@H]1N2C` [Example 31, (7R,10S)-2,11-dimethyl-5-[2-(2-methylpyrimidin-5-yl)ethyl]-5,6,7,8,9,10-hexahydro-7,10-epiminocyclohepta[b]indole], for which the results for the Emax in test [1] and in test [2] (setting [3]) were 96% and 97%, respectively. In addition, the EC50 in test [2] (Homo sapiens) was 6.05 µM.

Take `Cc1ccc2c(c1)c1c(n2CCc2cccc(C(F)(F)F)c2)CC2CCC1N2C` (centres unmarked) [Example 50, 2,11-dimethyl-5-{2-[3-(trifluoromethyl)phenyl]ethyl}-5,6,7,8,9,10-hexahydro-7,10-epiminocyclohepta[b]indole]: the Emax in test [1] stood at 101%; in test [2] (setting [3]) it was 175%. The EC50 in test [2] (Homo sapiens) amounted to 6.45 µM.

With `Cc1ccc2c(c1)c1c(n2CCc2cccc(C(F)(F)F)c2)C[C@@H]2CCC[C@H]1N2` [Example 135, (7S,11R)-2-methyl-5-{2-[3-(trifluoromethyl)phenyl]ethyl}-6,7,8,9,10,11-hexahydro-5H-7,11-epiminocycloocta[b]indole], in test [1], the Emax came to 126%.

With `Fc1ccc(Cn2c3c(c4cc(F)ccc42)CN2CCC3CC2)cc1` [Example 165, 9-fluoro-6-(4-fluorobenzyl)-3,4,5,6-tetrahydro-1H-2,5-ethanoazepino[4,3-b]indole], the Emax in test [1] came out at 104%.

For `Fc1ccc2c(c1)c1c(n2Cc2ccc(Br)cc2)C2CCN(CC2)C1` [Example 167, 6-(4-bromobenzyl)-9-fluoro-3,4,5,6-tetrahydro-1H-2,5-ethanoazepino[4,3-b]indole], the Emax came out at 92% in test [1] and 149% in test [2] (setting [3]). In test [2] (Homo sapiens), the EC50 worked out at 4.71 µM.

For `Fc1ccc2c(c1)c1c(n2-c2ccc3ncccc3c2)C2CCN(CC2)C1` [Example 228, 9-fluoro-6-quinolin-6-yl-3,4,5,6-tetrahydro-1H-2,5-ethanoazepino[4,3-b]indole], the Emax in test [1] stood at 141%; in test [2] (setting [3]), 263%. Further, in test [2] (Homo sapiens), the EC50 is 1.73 µM.

Regarding `Cc1ccc2cc(-n3c4c(c5cc(F)ccc53)CN3CCC4CC3)ccc2n1` [Example 229, 9-fluoro-6-(2-methylquinolin-6-yl)-3,4,5,6-tetrahydro-1H-2,5-ethanoazepino[4,3-b]indole], the Emax in test [1] is 165%; in test [2] (setting [3]) it was 282%. Besides, in test [2] (Homo sapiens), the EC50 was found to be 0.7 µM.

As to `c1ccc2c(c1)c1c(n2-c2ccc3ncncc3c2)C2CCN(CC2)C1` [Example 269, 6-(quinazolin-6-yl)-3,4,5,6-tetrahydro-1H-2,5-ethanoazepino[4,3-b]indole], the Emax in test [2] (setting [3]) came out at 204%. In addition, in test [2] (Homo sapiens), the EC50 amounted to 0.745 µM.

For the molecule `c1ccc2c(c1)c1c(n2-c2ccc3ccncc3c2)C2CCN(CC2)C1` [Example 270, 6-(isoquinolin-7-yl)-3,4,5,6-tetrahydro-1H-2,5-ethanoazepino[4,3-b]indole], the Emax in test [2] (setting [3]) stood at 270%. The EC50 in test [2] (Homo sapiens) stood at 2.81 µM.

For `c1ccc2c(c1)c1c(n2-c2ccc3cnccc3c2)C2CCN(CC2)C1` [Example 271, 6-(isoquinolin-6-yl)-3,4,5,6-tetrahydro-1H-2,5-ethanoazepino[4,3-b]indole], the Emax in test [2] (setting [3]) was 264%. The EC50 in test [2] (Homo sapiens) worked out at 3.17 µM.

On to `c1ccc2c(c1)c1c(n2-c2cc(-n3ccnc3)ccn2)C2CCN(CC2)C1` [Example 272, 6-[4-(1H-imidazol-1-yl)pyridin-2-yl]-3,4,5,6-tetrahydro-1H-2,5-ethanoazepino[4,3-b]indole], for which, in test [2] (setting [3]), the Emax turned out to be 149%. Besides, in test [2] (Homo sapiens), the EC50 is 3.99 µM.

Turning to `O=c1ccccn1-c1cccc(-n2c3c(c4ccccc42)CN2CCC3CC2)n1` [Example 273, 6′-(1,3,4,5-tetrahydro-6H-2,5-ethanoazepino[4,3-b]indol-6-yl)-2H-1,2′-bipyridin-2-one], in test [2] (setting [3]), the Emax came out at 190%. Besides, the EC50 in test [2] (Homo sapiens) turned out to be 7.48 µM.

Consider `O=C1COc2cc(-n3c4c(c5ccccc53)CN3CCC4CC3)ccc2N1` [Example 275, 7-(1,3,4,5-tetrahydro-6H-2,5-ethanoazepino[4,3-b]indol-6-yl)-2H-1,4-benzoxazin-3(4H)-one], for which the Emax in test [2] (setting [3]) is 130%. In test [2] (Homo sapiens), the EC50 amounted to 3.44 µM.

Regarding `NC(=O)c1cc(-n2c3c(c4ccccc42)CN2CCC3CC2)ccc1N` [Example 276, 2-amino-5-(3,4,5,6-tetrahydro-1H-2,5-ethanoazepino[4,3-b]indol-6(1H)-yl)benzamide], the EC50 in test [2] turned out to be 6.65 µM. Moreover, in test [2] (percent maximal intensity in JC-1 ratio normalized to 10 μM dimebolin), the JC-1 max % worked out at 80.55%.

`CN1[C@H]2CC[C@@H]1c1c(n(-c3ccc4ncccc4c3)c3ccccc13)C2` [Example 281, (7S,10R)-11-methyl-5-(quinolin-6-yl)-5,6,7,8,9,10-hexahydro-7,10-epiminocyclohepta[b]indole]: the Emax in test [2] (setting [3]) is 228%. The EC50 in test [2] (Homo sapiens) came out at 1.74 µM.

For the molecule `Fc1ccc2c(c1)c1c(n2Cc2ccc(Cl)nc2)CC2CNC1C2` (centres unmarked) [Example 285, 6-[(6-chloropyridin-3-yl)methyl]-9-fluoro-1,2,3,4,5,6-hexahydro-1,4-methanoazepino[4,3-b]indole], the Emax in test [2] (setting [3]) worked out at 149%. For the same molecule, in test [2] (Homo sapiens), the EC50 is 9.41 µM.

For the molecule `CN1[C@@H]2CC[C@H]1c1c(n(-c3ccc4ncccc4c3)c3ccccc13)C2` [Example 286, (7R,10S)-11-methyl-5-(quinolin-6-yl)-5,6,7,8,9,10-hexahydro-7,10-epiminocyclohepta[b]indole], the Emax in test [2] (setting [3]) came to 239%. The EC50 in test [2] (Homo sapiens) amounted to 4.41 µM.

In the case of `O=c1cccnn1-c1ccc(-n2c3c(c4ccccc42)CN2CCC3CC2)cc1` [Example 287, 2-[4-(1,3,4,5-tetrahydro-6H-2,5-ethanoazepino[4,3-b]indol-6-yl)phenyl]pyridazin-3(2H)-one], in test [2] (setting [3]), the Emax stood at 209%. Further, in test [2] (Homo sapiens), the EC50 was found to be 1.53 µM.
